Tests used:
[1] = target: Kelch domain of human KEAP1 (321-624 aa) (Homo sapiens (Human), UniProt Q14145); assay: KEAP1 KELCH ThermoFluor binding assay; conditions: KEAP Kelch […], 1,8-ANS, pH 7.0, average of results obtained, read-out: Tf Kd;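 also: Ligand-induced melting temperature shift of E. coli-expressed KEAP1 Kelch protein, Kd estimated from concentration-response curves of ΔTm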
[2] = system: Glo-Response ARE-luc2P HEK293 cell line; assay: ARE luciferase reporter cell-based assay; conditions: Homo sapiens, HEK293, 24 h, average of results obtained;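 also: luciferase signal tracks Nrf2 activation of the ARE once compounds disrupt KEAP1-Nrf2 binding, read with One-Glo reagent, DMSO serving as low control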

Kelch domain of human KEAP1 (321-624 aa), sequence (Q14145 321-624): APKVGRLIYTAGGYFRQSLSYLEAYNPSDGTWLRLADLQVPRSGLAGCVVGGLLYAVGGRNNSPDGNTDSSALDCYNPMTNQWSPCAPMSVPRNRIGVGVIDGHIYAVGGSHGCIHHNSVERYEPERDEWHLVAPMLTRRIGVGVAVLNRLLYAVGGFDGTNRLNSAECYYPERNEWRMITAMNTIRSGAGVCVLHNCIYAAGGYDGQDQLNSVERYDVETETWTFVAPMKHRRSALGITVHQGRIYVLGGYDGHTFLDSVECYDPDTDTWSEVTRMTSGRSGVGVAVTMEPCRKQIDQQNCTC

| Compound | Kd [1] | EC50 [2] |
| --- | --- | --- |
| Cc1ccc([C@H](c2ccn3c(C(F)F)nnc3c2C)C(C)(C)C(=O)O)nc1CN1CC2(COC2)Oc2ncccc2S1(=O)=O (single isomer, unassigned) [Example 611, (*R)-3-(3-(Difluoromethyl)-8-methyl-[1,2,4]triazolo[4,3-a]pyridin-7-yl)-3-(6-((1′,1′-dioxidospiro[oxetane-3,4′-pyrido[2,3-b][1,4,5]oxathiazepin]-2′(3′H)-yl)methyl)-5-methylpyridin-2-yl)-2,2-dimethylpropanoic Acid] | 12800 nM | 574 nM |
| Cc1ccc([C@@H](c2ccn3c(C(F)(F)F)nnc3c2C)C(C)(C)C(=O)O)cc1CN1CC2(CC2)Oc2ncccc2S1(=O)=O (single isomer, unassigned) [Example 317, (*S)-3-(3-((1′,1′-Dioxidospiro[cyclopropane-1,4′-pyrido[2,3-b][1,4,5]oxathiazepin]-2′(3′H)-yl)methyl)-4-methylphenyl)-2,2-dimethyl-3-(8-methyl-3-(trifluoromethyl)-[1,2,4]triazolo[4,3-a]pyridin-7-yl)propanoic Acid] | < 1 nM | 1.9 nM |
| Cc1cnc([C@@H](c2ccn3c(C(F)(F)F)nnc3c2C)C(C)(C)C(=O)O)cc1CN1CC2(CC2)Oc2nc(OCCN3CCCC3)c(C)cc2S1(=O)=O (single isomer, unassigned) [Example 590, (*S)-2,2-Dimethyl-3-(8-methyl-3-(trifluoromethyl)-[1,2,4]triazolo[4,3-a]pyridin-7-yl)-3-(5-methyl-4-((8′-methyl-1′,1′-dioxido-7′-(2-(pyrrolidin-1-yl)ethoxy)spiro[cyclopropane-1,4′-pyrido[2,3-b][1,4,5]oxathiazepin]-2′(3′H)-yl)methyl)pyridin-2-yl)propanoic Acid] | < 1 nM | 33.2 nM |
| CCn1nnc2c(C)c([C@H](c3cnc(C)c(CN4CC5(CCOCC5)Oc5ncccc5S4(=O)=O)c3)C(C)(C)C(=O)O)ccc21 (single isomer, unassigned) [Example 60, (*R)-3-(5-((1′,1′-Dioxido-2,3,5,6-tetrahydrospiro[pyran-4,4′-pyrido[2,3-b][1,4,5]oxathiazepin]-2′(3′H)-yl)methyl)-6-methylpyridin-3-yl)-3-(1-ethyl-4-methyl-1H-benzo[d][1,2,3]triazol-5-yl)-2,2-dimethylpropanoic Acid] | 41200 nM | 12300 nM |
| Cc1cnc2c(c1)S(=O)(=O)N(Cc1cc([C@@H](c3ccn4c(C(F)F)nnc4c3C)C(C)(C)C(=O)O)ccc1C)CC1(COC1)O2 (single isomer, unassigned) [Example 617, (*S)-3-(3-(Difluoromethyl)-8-methyl-[1,2,4]triazolo[4,3-a]pyridin-7-yl)-2,2-dimethyl-3-(4-methyl-3-((8′-methyl-1′,1′-dioxidospiro[oxetane-3,4′-pyrido[2,3-b][1,4,5]oxathiazepin]-2′(3′H)-yl)methyl)phenyl)propanoic Acid] | < 1 nM | 1.15 nM |
| Cc1ccc([C@H](c2ccn3c(C(F)(F)F)nnc3c2C)C(C)(C)C(=O)O)cc1CN1CC2(CCOCC2)Oc2nc(OCCCO)ccc2S1(=O)=O (single isomer, unassigned) [Example 51, (*R) 3-(3-((7′-(3-Hydroxypropoxy)-1′,1′-dioxido-2,3,5,6-tetrahydrospiro[pyran-4,4′-pyrido[2,3-b][1,4,5]oxathiazepin]-2′(3′H)-yl)methyl)-4-methylphenyl-2,2′-dimethyl-3-(8-methyl-3-trifluoromethyl)-[1,2,4]triazolo[4,3-a]pyridine-7-yl)propanoic Acid] | 0.97 nM | 646 nM |
| Cc1ccc([C@@H](c2ccn3c(C(F)F)nnc3c2C)C(C)(C)C(=O)O)cc1CN1CC2(CCOCC2)Oc2nc(OCCN3CCCCC3)c(C)cc2S1(=O)=O (single isomer, unassigned) [Example 379, (*S)-3-(3-(Difluoromethyl)-8-methyl-[1,2,4]triazolo[4,3-a]pyridine-7-yl)-2,2-dimethyl-3-(4-methyl-3-((8′-methyl-1′,1′-dioxido-7′-(2-(piperidin-1-yl)ethoxy)-2,3,5,6-tetrahydrospiro[pyran-4,4′-pyrido[2,3-b][1,4,5]oxathiazepin]-2′(3′H)-yl)methyl)phenyl)propanoic Acid] | < 1 nM | 12.3 nM |
| Cc1ccc([C@@H](CC(=O)O)c2cc(OC3CC3)c3c(c2)nnn3C)cc1CN1C[C@H]2CCCCN2c2ncccc2S1(=O)=O (single isomer, unassigned) [Example 404, (*R)-3-(7-Cyclopropoxy-1-methyl-1H-benzo[d][1,2,3]triazol-5-yl)-3-(3-(((*R)-5,5-dioxido-7,7a,8,9,10,11-hexahydro-6H-dipyrido[2,1-d:2′,3′-f][1,2,5]thiadiazepin-6-yl)methyl)-4-methylphenyl)propanoic Acid] | < 1 nM | 19.6 nM |
| Cc1ccc([C@@H](CC(=O)O)c2ccn3c(C(F)(F)F)nnc3c2C)cc1CN1C[C@]2(C)CCCN2c2ncccc2S1(=O)=O (single isomer, unassigned) [Example 187, (*R)-3-(4-Methyl-3-(((*S)-7a-methyl-5,5-dioxido-7a,8,9,10-tetrahydropyrido[2,3-f]pyrrolo[2,1-d][1,2,5]thiadiazepin-6(7H)-yl)methyl)phenyl)-3-(8-methyl-3-(trifluoromethyl)-[1,2,4]triazolo[4,3-a]pyridin-7-yl)propanoic Acid] | < 1 nM | 550 nM |
| Cc1cnc2c(c1)S(=O)(=O)N(Cc1cc([C@H](c3ccn4c(C(F)(F)F)nnc4c3)C(C)(C)C(=O)O)ccc1C)CC1(CC1)O2 (single isomer, unassigned) [Example 324, (*R)-2,2-Dimethyl-3-(4-methyl-3-((8′-methyl-1′,1′-dioxidospiro[cyclopropane-1,4′-pyrido[2,3-b][1,4,5]oxathiazepin]-2′(3′H)-yl)methyl)phenyl)-3-(3-(trifluoromethyl)-[1,2,4]triazolo[4,3-a]pyridin-7-yl)propanoic Acid] | < 1 nM | 16.7 nM |
| Cc1ccc([C@H](CC(=O)O)c2ccc3c(nnn3C3CC3)c2C)cc1CN1C[C@@H]2COCCN2c2ncccc2S1(=O)=O (single isomer, unassigned) [Example 24, (*S)-3-(1-Cyclopropyl-4-methyl-1H-benzo[d][1,2,3]triazol-5-yl)-3-(3-(((*R)-5,5-dioxido-7a,8,10,11-tetrahydro-[1,4]oxazino[3,4-d]pyrido[2,3-f][1,2,5]thiadiazepin-6(7H)-yl)methyl)-4-methylphenyl)propanoic Acid] | 0.264 nM | 4.1 nM |
| Cc1ccc(C(CC(=O)O)c2cc(OC(F)F)c3c(c2)nnn3C)cc1CN1C[C@H]2CCCCN2c2ncccc2S1(=O)=O (stereo in doubt) [Example 1, 3-(7-(Difluoromethoxy)-1-methyl-1H-benzo[d][1,2,3]triazol-5-yl)-3-(3-(((*R)-5,5-dioxido-7,7a,8,9,10,11-hexahydro-6H-dipyrido[2,1-d:2′,3′-f][1,2,5]thiadiazepin-6-yl)methyl)-4-methylphenyl)propanoic acid] | 0.042 nM | 35 nM |
| Cc1ccc([C@H](CC(=O)O)c2ccn3c(C(F)(F)F)nnc3c2C)cc1CN1C[C@H]2CN(C)CCN2c2ncccc2S1(=O)=O (single isomer, unassigned) [Example 181, (*S)-3-(4-Methyl-3-(((*R)-9-methyl-5,5-dioxido-7,7a,8,9,10,11-hexahydro-6H-pyrazino[2,1-d]pyrido[2,3-f][1,2,5]thiadiazepin-6-yl)methyl)phenyl)-3-(8-methyl-3-(trifluoromethyl)-[1,2,4]triazolo[4,3-a]pyridin-7-yl)propanoic Acid] | 110 nM | 1110 nM |
| Cc1ccc(C(CC(=O)O)c2ccn3c(C(F)(F)F)nnc3c2C)nc1CN1C[C@@H]2CCCCN2c2ncccc2S1(=O)=O (stereo in doubt) [Example 478, 3-(6-(((*S)-5,5-Dioxido-7,7a,8,9,10,11-hexahydro-6H-dipyrido[2,1-d:2′,3′-f][1,2,5]thiadiazepin-6-yl)methyl)-5-methylpyridin-2-yl)-3-(8-methyl-3-(trifluoromethyl)-[1,2,4]triazolo[4,3-a]pyridin-7-yl)propanoic Acid] | < 1 nM | 57.6 nM |
| Cc1cnc2c(c1)S(=O)(=O)N(Cc1cc([C@@H](c3ccc4c(nnn4C4CC4)c3C)C(C)(C)C(=O)O)cnc1C)CC1(COC1)O2 (single isomer, unassigned) [Example 623, (*R)-3-(1-Cyclopropyl-4-methyl-1H-benzo[d][1,2,3]triazol-5-yl)-2,2-dimethyl-3-(6-methyl-5-((8′-methyl-1′,1′-dioxidospiro[oxetane-3,4′-pyrido[2,3-b][1,4,5]]oxathiazepin]-2′(3′H)-yl)methyl)pyridine-3-yl)propanoic Acid] | < 1 nM | 7.5 nM |
| Cc1ccc([C@H](CC(=O)O)c2ccn3c(C(F)(F)F)nnc3c2C)nc1CN1CC2(CC2)Oc2ncccc2S1(=O)=O (single isomer, unassigned) [Example 483, (*R)-3-(6-((1′,1′-Dioxidospiro[cyclopropane-1,4′-pyrido[2,3-b][1,4,5]oxathiazepin]-2′(3′H)-yl)methyl)-5-methylpyridin-2-yl)-3-(8-methyl-3-(trifluoromethyl)-[1,2,4]triazolo[4,3-a]pyridin-7-yl)propanoic Acid] | < 1 nM | 3450 nM |
| Cc1ccc([C@H](CC(=O)O)c2ccn3c(C(F)F)nnc3c2C)cc1CN1C[C@]2(C)CCCN2c2ncccc2S1(=O)=O (single isomer, unassigned) [Example 476, (*S)-3-(3-(Difluoromethyl)-8-methyl-[1,2,4]triazolo[4,3-a]pyridin-7-yl)-3-(4-methyl-3-(((*S)-7a-methyl-5,5-dioxido-7a,8,9,10-tetrahydropyrido[2,3-f]pyrrolo[2,1-d][1,2,5]thiadiazepin-6(7H)-yl)methyl)phenyl)propanoic Acid] | < 1 nM | 219 nM |
